Data on one molecule can be found in patent US7713527B2, “Specific avian egg antibodies for disease prevention and improvement of growth performance” (priority 2006, dated 2010).

Like-named read-outs stand apart in the source and are kept apart here.

The format of the assay is in vivo. The conditions noted are these: Mecadox 1.0% in diet, no SDEP. The protocol: Thirty-six 18 day old piglets (6.3±0.2 kg) were allocated to six treatment groups, blocked by weight and given ad libitum access to feed and water (n=6/group)
Each group was administered varying doses of SDEP containing antibodies to ETEC K88 and/or antibiotics for 28 days (Table 1).
Animals were weighed at the end of phase 1 (14 d) and phase 2 (28 d), and average daily gains were calculated.
Thirty six crossbred (GAP Genetics, Winnipeg, MB, Canada) 18-d old pigs with an initial weight of 6.3±0.2 kg were allotted into six treatment groups: (1) control; (2) 0.1% SDEP; (3) 0.1% SDEP+antibiotics; (4) control+antibiotics; (5) 0.4% SDEP; (6) 0.4% SDEP+antibiotics.
Pigs were housed in stainless steel pens equipped with nipple waterers, stainless steel feeders, and plastic-coated expanded metal floors. The pens were located in an environmentally regulated building maintained at 25±2° C. with a 12-h light/dark cycle. Body weight and feed consumption were recorded after every phase and ad libitum access to feed and water was provided during the entire period of the study.
There were three pens per treatment and two pigs per pen. The pigs were fed a standard pig starter diet in phases 1 (Table 3) and 2 (Table 4). The diets were with or without spray-dried egg powder (SDEP) containing E. Coli K-88 antibodies and with or without antibiotics. The diets were fed in two phases. Both phases were fed for 14 days each. Pigs were allotted to treatments based on weaned weights and dam. Feed and water was available always. Pigs and feeders were weighed at the end of each phase to determine weight gains and feed disappearance.

For `COC(=O)N/N=C/c1c[n+]([O-])c2ccccc2[n+]1[O-]` [Mecadox], where the note is “phase 1 (days 0-14)”, the “Avg. daily gain / ADG” value amounted to 240 g, the “Avg. daily intake / ADFI” value is on record as 328 g, the Mean feed/gain is 1.63 and the “Mean final weight / End Weight” value was 9.6 kg. Besides, the “G:F” value (phase 1) is 0.72. Also, under “phase 2 (days 14-28)”, the “Avg. daily gain / ADG” value is reported as 421 g, the “Avg. daily intake / ADFI” value was determined as 532 g, the Mean feed/gain was 1.35 and the “Mean final weight / End Weight” value turned out to be 15.4 kg. For the same molecule, for the setting “phase 2”, the “G:F” value is listed as 0.74.
